“And” between values parts separate entries of the source, which are not always exact repeats. Equal values may be shown once.
What was measured:
[1] = molecular target: T1, FIH (Homo sapiens, UniProt Q9NWT6); experiment: FIH steady-state kinetic parameters (SPE-MS, initial hydroxylation rates); type: biochemical; design: slope of initial reaction rate: unit not given here
Description: Final 2OG/2OG derivative concentrations are given in Supplementary Figs. 5 and 6. Reactions were monitored with a rate of ~1 sample/40 s using the same SPE-MS configuration as described above. Data were analyzed as described above and the slopes of the initial reaction rates (Supplementary Figs. 5 and 6) fitted to a Michaelis–Menten plot using non-linear regression (GraphPad Prism 5). […]
determine kinetic parameters for 2OG derivatives (continues on the following page). Maximum velocities (vapp ) and Michaelis constants (Kapp) of FIH were determined in independent triplicates for 2OG and the 2OG […]
SPE-MS as described in the Methods section. […]
acid (LAA), and 20 μM ammonium iron(II) sulfate hexahydrate (FAS, (NH4)2Fe(SO4)2·6H2O) in buffer (50 mM […]
Tris, 50 mM NaCl, pH 7.5, 20° C). […]
data are provided as a Source Data file. […]
concentrations of 2OG; (b) hydroxylation rates used to determine kinetic parameters of FIH for 2OG; (c) time […]
3-methyl-2OG (1); (d) hydroxylation rates used to determine kinetic parameters of FIH for 1; (e) time course of […]
2OG (12); (f) hydroxylation rates used to determine kinetic parameters of FIH for 12; (g) time course of the FIH- […]
(h) hydroxylation rates used to determine kinetic parameters of FIH for 14; (i) time course of the FIH-catalyzed […]
(carboxycarbonyl)cyclopentane-1-carboxylic acid (22); (j) hydroxylation rates used to determine kinetic parameters of FIH for 22.
Supplementary Figure 6. Hydroxylation rates of FIH-catalyzed CA1-20 hydroxylations used to determine kinetic parameters for 2OG derivatives (continues on the following page). Maximum velocities (vapp ) and […]
ammonium iron(II) sulfate hexahydrate (FAS, (NH4)2Fe(SO4)2·6H2O) in buffer (50 mM Tris, 50 mM NaCl, pH […]
Source data are provided as a Source […]
of 2OG; (b) hydroxylation rates used to determine kinetic parameters of FIH for 2OG; (c) time course of the FIH-catalyzed hydroxylation reaction of the CA1-20 peptide for the shown concentrations of 3-methyl-2OG (1); (d) hydroxylation rates used to determine kinetic parameters of FIH for 1; (e) time course of the FIH -catalyzed hydroxylation reaction of the CA 1-20 peptide for the shown concentrations of 4 -methyl-2OG (12); (f) hydroxylation rates used to determine kinetic parameters of FIH for 12; (g) time course of the FIH-catalyzed hydroxylation reaction of the CA1-20 peptide for the shown concentrations of 4-ethyl-2OG (14); (h) hydroxylation rates used to determine kinetic parameters of FIH for 14; (i) time course of the FIH-catalyzed hydroxylation reaction of the CA1-20 peptide for the shown concentrations of 3-(carboxycarbonyl)cyclopentane-1-carboxylic acid (22); (j) hydroxylation rates used to determine kinetic parameters of FIH for 22.

[2] = molecular target: T1, FIH; experiment: SPE-MS FIH turnover (cosubstrate) assay in the absence of 2OG; type: biochemical; settings: 330 μM 2OG or 2OG derivative, no 2OG, t = 15 min
Summary of the method: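 Purified recombinant FIH incubated with C3/C4-substituted 2OG derivatives in place of 2OG; substrate hydroxylation (+16 Da) read by SPE-MS on C4 cartridge. Value given as % conversion = 100 × product/(substrate + product) peak integrals.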

T1 sequence (Q9NWT6 whole entry): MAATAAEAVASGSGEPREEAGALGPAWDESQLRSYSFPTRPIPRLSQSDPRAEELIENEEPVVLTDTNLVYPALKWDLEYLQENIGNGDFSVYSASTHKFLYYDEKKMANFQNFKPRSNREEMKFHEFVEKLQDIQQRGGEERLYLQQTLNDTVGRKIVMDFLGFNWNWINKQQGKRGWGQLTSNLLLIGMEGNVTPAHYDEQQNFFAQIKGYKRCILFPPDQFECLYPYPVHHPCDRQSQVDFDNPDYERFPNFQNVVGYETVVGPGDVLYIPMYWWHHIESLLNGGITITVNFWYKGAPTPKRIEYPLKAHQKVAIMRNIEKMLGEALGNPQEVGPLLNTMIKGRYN

- SPE-MS determined concentration of hydroxylated HIF-1a peptide ([1]; 0.25 uM compound 12, time 0.699833 min): 0.04437 µM and 0.04741 µM and 0.03831 µM
- SPE-MS determined concentration of hydroxylated HIF-1a peptide ([1]; 0.25 uM compound 12, time 2.098 min): 0.08198 µM and 0.1152 µM and 0.1017 µM
- SPE-MS determined concentration of hydroxylated HIF-1a peptide ([1]; 0.5 uM compound 12, time 0.699833 min): 0.06422 µM and 0.08062 µM and 0.07548 µM
- SPE-MS determined concentration of hydroxylated HIF-1a peptide ([1]; 0.5 uM compound 12, time 2.098 min): 0.1727 µM and 0.153 µM and 0.1556 µM
- SPE-MS determined concentration of hydroxylated HIF-1a peptide ([1]; 0.5 uM compound 12, time 2.797 min): 0.211 µM
- SPE-MS determined concentration of hydroxylated HIF-1a peptide ([1]; 1 uM compound 12, time 0.699833 min): 0.1124 µM and 0.1213 µM and 0.1053 µM
- SPE-MS determined concentration of hydroxylated HIF-1a peptide ([1]; 1 uM compound 12, time 2.098 min): 0.2072 µM and 0.2617 µM and 0.2659 µM
- SPE-MS determined concentration of hydroxylated HIF-1a peptide ([1]; 1 uM compound 12, time 2.797 min): 0.2567 µM and 0.3212 µM and 0.319 µM
- SPE-MS determined concentration of hydroxylated HIF-1a peptide ([1]; 2 uM compound 12, time 0.699833 min): 0.1658 µM and 0.1554 µM and 0.162 µM
- SPE-MS determined concentration of hydroxylated HIF-1a peptide ([1]; 2 uM compound 12, time 2.098 min): 0.3451 µM and 0.3558 µM and 0.3835 µM
- SPE-MS determined concentration of hydroxylated HIF-1a peptide ([1]; 2 uM compound 12, time 2.797 min): 0.4027 µM and 0.4334 µM and 0.458 µM
- SPE-MS determined concentration of hydroxylated HIF-1a peptide ([1]; 4 uM compound 12, time 0.699833 min): 0.2736 µM and 0.2242 µM and 0.2062 µM
- SPE-MS determined concentration of hydroxylated HIF-1a peptide ([1]; 4 uM compound 12, time 2.098 min): 0.6118 µM and 0.4979 µM and 0.4845 µM
- SPE-MS determined concentration of hydroxylated HIF-1a peptide ([1]; 4 uM compound 12, time 2.797 min): 0.7774 µM and 0.6268 µM and 0.6241 µM
- SPE-MS determined concentration of hydroxylated HIF-1a peptide ([1]; 8 uM compound 12, time 0 min): 0.06164 µM and 0.06905 µM and 0.05066 µM
- SPE-MS determined concentration of hydroxylated HIF-1a peptide ([1]; 8 uM compound 12, time 0.699833 min): 0.2593 µM and 0.272 µM and 0.2286 µM
- SPE-MS determined concentration of hydroxylated HIF-1a peptide ([1]; 8 uM compound 12, time 2.098 min): 0.6058 µM and 0.6256 µM and 0.5278 µM
- SPE-MS determined concentration of hydroxylated HIF-1a peptide ([1]; 8 uM compound 12, time 2.797 min): 0.7712 µM and 0.7937 µM and 0.6846 µM
- SPE-MS determined concentration of hydroxylated HIF-1a peptide ([1]; 16 uM compound 12, time 0 min): 0.09407 µM and 0.05485 µM and 0.06025 µM
- SPE-MS determined concentration of hydroxylated HIF-1a peptide ([1]; 16 uM compound 12, time 0.699833 min): 0.2985 µM and 0.2562 µM and 0.2621 µM
- SPE-MS determined concentration of hydroxylated HIF-1a peptide ([1]; 16 uM compound 12, time 2.098 min): 0.6815 µM and 0.5982 µM and 0.6264 µM
- SPE-MS determined concentration of hydroxylated HIF-1a peptide ([1]; 16 uM compound 12, time 2.797 min): 0.848 µM and 0.7909 µM and 0.7891 µM
- SPE-MS determined concentration of hydroxylated HIF-1a peptide ([1]; 32 uM compound 12, time 0 min): 0.0933 µM and 0.07278 µM and 0.06334 µM
- SPE-MS determined concentration of hydroxylated HIF-1a peptide ([1]; 32 uM compound 12, time 0.699833 min): 0.2746 µM and 0.2712 µM and 0.2731 µM
- SPE-MS determined concentration of hydroxylated HIF-1a peptide ([1]; 32 uM compound 12, time 2.098 min): 0.594 µM and 0.6472 µM and 0.6437 µM
- SPE-MS determined concentration of hydroxylated HIF-1a peptide ([1]; 32 uM compound 12, time 2.797 min): 0.7489 µM and 0.8116 µM and 0.8049 µM
- slope of initial reaction rate ([1]; CA1-20, 0.25 μM 12): 0.003176 and 0.003306
- slope of initial reaction rate ([1]; CA1-20, 0.5 μM 12): 0.006776 and 0.007676 and 0.008102
- slope of initial reaction rate ([1]; CA1-20, 1 μM 12): 0.01054 and 0.007937 and 0.01116
- slope of initial reaction rate ([1]; CA1-20, 2 μM 12): 0.01217 and 0.0142 and 0.01263
- slope of initial reaction rate ([1]; CA1-20, 4 μM 12): 0.01597 and 0.01096 and 0.0129
- slope of initial reaction rate ([1]; CA1-20, 8 μM 12): 0.01648 and 0.01721 and 0.01973
- slope of initial reaction rate ([1]; HIF-1a788-822, 0.25 μM 12): 0.000487 and 0.000839 and 0.000746
- slope of initial reaction rate ([1]; HIF-1a788-822, 0.5 μM 12): 0.000918 and 0.001031 and 0.00127
- slope of initial reaction rate ([1]; HIF-1a788-822, 1 μM 12): 0.001321 and 0.001828 and 0.001913
- slope of initial reaction rate ([1]; HIF-1a788-822, 2 μM 12): 0.00207 and 0.002424 and 0.002687
- slope of initial reaction rate ([1]; HIF-1a788-822, 4 μM 12): 0.004223 and 0.003389 and 0.00353
- slope of initial reaction rate ([1]; HIF-1a788-822, 8 μM 12): 0.004209 and 0.004298 and 0.003737
- slope of initial reaction rate ([1]; HIF-1a788-822, 16 μM 12): 0.004508 and 0.004326 and 0.004345
- slope of initial reaction rate ([1]; HIF-1a788-822, 32 μM 12): 0.003886 and 0.004421 and 0.004419
- FIH activity, %-substrate conversion ([2]; CA1–20 substrate): ~80%
- FIH activity, %-substrate conversion ([2]; HIF-1α788–822 substrate): ~45%
SMILES: CC(CC(=O)C(=O)O)C(=O)O (stereo not drawn) [compound 12, 4-methyl-2OG]

Reference: paper PMC8580996, “2-Oxoglutarate derivatives can selectively enhance or inhibit the activity of human oxygenases” (Nature Communications, 2021)
